From US20250215029A1 (Recludix Pharma, Inc., priority 2022, published 2025)
Like-named read-outs stand apart in the source and are kept apart here.

Assays:
[1] = target: T1, Recombinant STAT3 protein (STAT3 (G127-I722)) (Homo sapiens, UniProt P40763); experiment: STAT3 Fluorescence Polarization (FP) Assay; type: binding; conditions: probe 5-FAM-GpYLPQTV-NH2 2 nM, 45-minute incubation
T1 construct: Recombinant STAT3 protein (STAT3 (G127-I722))
Method in brief: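 Compounds in serial dilution receive a premix of STAT3 (G127-I722, 25 nM) and fluorescent phosphotyrosine peptide 5-FAM-GpYLPQTV-NH2 (2 nM) at pH 7.4. After 45 min at room temperature, FP is measured and IC50 derived by nonlinear regression.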

[2] = target: T2, Recombinant STAT6 protein (STAT6 (W123-T658)) (Homo sapiens, UniProt P42226); experiment: STAT6 Fluorescence Polarization (FP) Assay; type: binding; conditions: probe 5-FAM-Ap[…]-NH2 2 nM, 45-minute incubation
T2 construct: Recombinant STAT6 protein (STAT6 (W123-T658))
T2 sequence (P42226 123-658): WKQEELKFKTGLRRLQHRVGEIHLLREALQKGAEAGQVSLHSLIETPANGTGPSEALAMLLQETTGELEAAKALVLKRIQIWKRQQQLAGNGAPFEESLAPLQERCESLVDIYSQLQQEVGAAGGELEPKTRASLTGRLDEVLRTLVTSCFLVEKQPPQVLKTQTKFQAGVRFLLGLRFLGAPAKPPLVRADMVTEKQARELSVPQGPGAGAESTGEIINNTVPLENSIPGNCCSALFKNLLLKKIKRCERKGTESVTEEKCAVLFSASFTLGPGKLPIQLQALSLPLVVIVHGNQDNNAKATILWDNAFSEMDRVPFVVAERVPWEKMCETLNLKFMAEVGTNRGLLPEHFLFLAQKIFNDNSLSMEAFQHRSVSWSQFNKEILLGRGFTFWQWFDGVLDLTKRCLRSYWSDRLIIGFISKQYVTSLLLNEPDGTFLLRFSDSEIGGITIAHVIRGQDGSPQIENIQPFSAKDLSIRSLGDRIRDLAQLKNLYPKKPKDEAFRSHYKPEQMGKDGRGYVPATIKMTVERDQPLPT
Method in brief: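 Recombinant STAT6 (W123-T658) at 250 nM mixed with 2 nM 5-FAM phosphotyrosine peptide probe in HEPES pH 7.4 buffer with DTT, 1% DMSO final, added to serially diluted compounds. FP (mP) read after 45 min at room temperature; IC50 by nonlinear regression vs log concentration.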

[3] = STAT3 (G127-I722) 25 nM, read-out: STAT3 (FP assay IC50 class)
[4] = STAT6 (W123-T658) 250 nM, read-out: STAT6 (FP assay IC50 class)

T1 sequence (P40763 127-722): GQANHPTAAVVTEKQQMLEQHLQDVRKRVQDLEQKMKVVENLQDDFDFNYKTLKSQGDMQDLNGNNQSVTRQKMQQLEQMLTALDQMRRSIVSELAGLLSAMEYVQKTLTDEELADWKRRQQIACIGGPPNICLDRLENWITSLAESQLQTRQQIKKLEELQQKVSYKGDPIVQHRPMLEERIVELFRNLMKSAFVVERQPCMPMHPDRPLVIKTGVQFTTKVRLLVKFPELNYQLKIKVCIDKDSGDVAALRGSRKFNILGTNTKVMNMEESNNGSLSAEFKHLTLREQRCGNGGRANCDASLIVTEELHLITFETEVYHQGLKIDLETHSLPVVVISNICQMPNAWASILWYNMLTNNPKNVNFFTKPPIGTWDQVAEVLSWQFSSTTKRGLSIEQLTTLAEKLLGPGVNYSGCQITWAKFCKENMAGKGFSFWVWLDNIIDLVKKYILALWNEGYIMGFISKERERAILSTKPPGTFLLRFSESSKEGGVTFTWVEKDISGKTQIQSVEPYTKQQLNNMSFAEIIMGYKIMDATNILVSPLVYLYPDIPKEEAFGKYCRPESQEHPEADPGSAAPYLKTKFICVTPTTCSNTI

| IC50 [1, 3] [nM] | IC50 [2, 4] [nM] | IC50 ([1]; STAT3 25 nM, read-out: STAT3 (FP assay IC50)) [nM] | IC50 ([2]; STAT6 250 nM, read-out: STAT6 (FP assay IC50)) [nM] | Structure (SMILES) |
| --- | --- | --- | --- | --- |
| 100 to 1000 | 300 to 3000 |  |  | O=C(N[C@H]1CCC[C@H]2CC[C@@H](C(=O)N3CC(n4ncc5ccccc54)C3)N2C1=O)c1cc2cc(C(F)(F)P(=O)(O)O)ccc2s1 [Compound 821, ((2-(((3S,6S,9aS)-3-(3-(1H-indazol-1-yl)azetidine-1-carbonyl)-5-oxooctahydro-1H-pyrrolo[1,2-a]azepin-6-yl)carbamoyl)benzo [b]thiophen-5-yl)difluoromethyl) phosphonic acid] |
| 1000 to 10000 | ≤ 300 |  |  | N#C[C@H]1[C@H](c2ccccc2)CN(C(=O)[C@@H]2CC[C@@H]3CCC[C@H](NC(=O)c4cc5cc([C@H](F)P(=O)(O)O)ccc5s4)C(=O)N32)C12CC2 (single isomer, unassigned) [Compound 916] |
| 1000 to 10000 | 300 to 3000 |  |  | CC(C)n1ccc(N2C(=O)N(C(=O)[C@@H]3CC[C@@H]4CCCC[C@H](NC(=O)c5cc6cc(C(F)P(=O)(O)O)ccc6s5)C(=O)N43)C3(CC3)C2=O)cc1=O (stereo partly drawn) [Compound 586, (fluoro(2-(((3S,6S,10aS)-3-(6-(1-isopropyl-2-oxo-1,2-dihydropyridin-4-yl)-5,7-dioxo-4,6-diazaspiro[2.4]heptane-4-carbonyl)-5-oxodecahydropyrrolo[1,2-a]azocin-6-yl)carbamoyl)benzo[b]thiophen-5-yl)methyl)phosphonic acid] |
| < 100 | 3000 to 30000 |  |  | CN(C)c1c(F)cncc1C1CN(C(=O)[C@@H]2CC[C@@H]3CCC[C@H](NC(=O)c4cc5cc([C@H](F)P(=O)(O)O)ccc5s4)C(=O)N32)C1 (single isomer, unassigned) [Compound 685] |
| 1000 to 10000 | 300 to 3000 |  |  | O=C(N[C@H]1CCCC[C@H]2CC[C@@H](C(=O)N3CCc4[nH]ncc4C3)N2C1=O)c1cc2cc(C(F)(F)P(=O)(O)O)ccc2s1 [Compound 802, (difluoro(2-(((3S,6S,10aS)-5-oxo-3-(4,5,6,7-tetrahydro-1H-pyrazolo[4,3-c]pyridine-5-carbonyl)decahydropyrrolo[1,2-a]azocin-6-yl)carbamoyl)benzo [b]thiophen-5-yl)methyl) phosphonic acid] |
| 100 to 1000 | 3000 to 30000 |  |  | CCc1ccncc1C1CN(C(=O)[C@@H]2CC[C@@H]3CCC[C@H](NC(=O)c4ccc5cc(CP(=O)(O)O)sc5c4)C(=O)N32)C1 [Compound 550, ((6-(((3S,6S,9aS)-3-(3-(4-ethylpyridin-3-yl)azetidine-1-carbonyl)-5-oxooctahydro-1H-pyrrolo[1,2-a]azepin-6-yl)carbamoyl)benzo[b]thiophen-2-yl)methyl)phosphonic acid] |
|  |  | 1000 to 10000 | ≤ 300 | N#C[C@H]1CN(C(=O)[C@@H]2CC[C@@H]3CC[C@H](O)C[C@H](NC(=O)c4cc5cc(C(F)(F)P(=O)(O)O)ccc5s4)C(=O)N32)C[C@@H]1c1ccccc1 [Compound 12, ((2-(((3S,6S,8S,10aR)-3-((3R,4S)-3-cyano-4-phenylpyrrolidine-1-carbonyl)-8-hydroxy-5-oxodecahydropyrrolo [1,2-a]azocin-6-yl)carbamoyl)benzo[b]thiophen-5-yl)difluoromethyl) phosphonic acid] |
| < 100 | 3000 to 30000 |  |  | COCCOC1(c2ccccn2)CN(C(=O)[C@@H]2CC[C@@H]3CCCC[C@H](NC(=O)c4cc5cc(C(F)P(=O)(O)O)ccc5s4)C(=O)N32)C1 (stereo partly drawn) [Compound 615, (fluoro(2-(((3S,6S,10aS)-3-(3-(2-methoxyethoxy)-3-(pyridin-2-yl)azetidine-1-carbonyl)-5-oxodecahydropyrrolo[1,2-a]azocin-6-yl)carbamoyl)benzo [b]thiophen-5-yl)methyl) phosphonic acid] |

| Structure (SMILES) | IC50 [1, 3] [nM] | IC50 [2, 4] [nM] | IC50 ([1]; STAT3 25 nM, read-out: STAT3 (FP assay IC50)) [nM] | IC50 ([2]; STAT6 250 nM, read-out: STAT6 (FP assay IC50)) [nM] |
| --- | --- | --- | --- | --- |
| C[C@@H]1[C@@H](c2cccnc2)CN1C(=O)[C@@H]1CC[C@@H]2CCC[C@H](NC(=O)c3cc4cc(C(F)P(=O)(O)O)ccc4s3)C(=O)N21 (single isomer, unassigned) [Compound 738] | < 100 | 300 to 3000 |  |  |
